We go through six compounds from US20070092925A1, “Method of treating skin by delivering specific protein stabilizers/protectors to skin proteins and methods of selecting said stabilizers” (Conopco, Inc., d/b/a UNILEVER, priority 2005, published 2007).

For test [1], the target named is T1, trypsin from bovine pancreas (Bos taurus, UniProt P00760).
T1 construct: purchased Sigma; host or cells: bovine pancreas
T1 sequence (P00760 24-246): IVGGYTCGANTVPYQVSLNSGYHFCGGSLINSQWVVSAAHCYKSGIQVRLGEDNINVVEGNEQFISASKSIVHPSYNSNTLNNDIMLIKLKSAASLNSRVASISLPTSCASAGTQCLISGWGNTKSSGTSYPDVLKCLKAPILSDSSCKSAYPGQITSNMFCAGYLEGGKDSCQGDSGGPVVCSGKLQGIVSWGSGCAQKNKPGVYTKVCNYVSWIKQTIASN
In words: trypsin autolysis followed by fluorescence spectroscopy (ratio R versus time, FIG. 2). It counts as biochemical. The note with it: 0.1 M TRIS buffer pH 7.5, compared with water. The source says: (§1) The process of serine protease (e.g., trypsin) autolysis can be followed by using fluorescence spectroscopy. […] Consequently, the autolysis of trypsin and subsequent unfolding is accompanied by spectral changes that can be detected by obtaining fluorescence spectra at various time points after preparing a fresh solution of trypsin.
(§2) The iso-emissive points (fluorescence intensity independent of time) at 305 nm and 360 nm are typical of a situation where one fluorescent component (native protein) is the source of the other fluorescent component(s) (denatured protein and cleaved fragments). Applicants quantified the change in the trypsin spectrum by taking a ratio, R, of the area between 320 nm and 330 nm and the area between 380 nm and 400 nm: [formula]
(§3) The numerator represents the relative amount of native protein in the sample and the denominator represents relative amount of denatured protein and cleaved fragments. R therefore is a measure of how far the autolysis process has progressed.
(§4) Protocol—Fresh solutions of trypsin (2.5 mg/ml) were prepared by mixing the appropriate amount of solid trypsin from bovine pancreas (Sigma) with appropriate amounts of buffer solution (1M, pH 7.5; VWR), water, and protein stabilizing compound (pyrollidone carboxylic acid—Sigma Ultrapure; trimethylamine N-oxide—Fluka Purum; glycerin—J.T. Baker; 1-Propanaminium, 2,3-dihydroxy-N,N,N-trimethyl-, chloride—synthesized and purified in house), and/or protein destabilizing compound (urea—J.T. Baker Ultrapure Bioreagent); sodium dodecyl sulfate—ICN Ultrapure). All chemicals were used as supplied. Within minutes of dissolving the solid trypsin the solution was transferred into a quartz fluorescence cuvette and placed inside a Perkin Elmer LS 50 B fluorescence spectrometer. Fluorescence spectra were subsequently measured, either every 5 minutes or every 10 minutes. The excitation wavelength was 280 nm.
A seen in FIG. 2, applicants plotted trypsin autolysis as followed by fluorescence spectroscopy in various media with 0.1 M TRIS buffer pH 7.5. These media include: 0.5 M PCA, i.e., pyrollidone carboxylic acid (closed triangles); 1 M TMAO (closed diamonds); 1 M glycerol (closed circles); 1M 1-propanaminium, 2,3-dihydroxy-N,N,N-trimethyl-,chloride (crosses); water (closed squares); 1 M urea (open triangles); and 0.5 mM SDS, i.e., sodium dodecyl sulphate (open circles).
The ability of various compounds or combinations of compounds to increase or depress the rate of trypsin autolysis can be compared by plotting R as a function of time as is shown, for example, in FIG. 2.

Test [2] has as its target T1, trypsin from bovine pancreas. In words: trypsin autolysis followed by fluorescence spectroscopy in the presence of the denaturant SDS (FIG. 3). It counts as biochemical.
Text: as §1, §2, §3, §4
For reference purposes, also shown are autolysis traces in the presence of 0.5 mM SDS without any protein stabilizer (open squares) and without any SDS or protein stabilizer (closed squares).

Setting [3] is: 1.0 M stabilizer plus 0.5 mM SDS.

SMILES strings stand for the structures. Entries after “also recorded” stand apart in the source; their conditions may differ.

As for `C[N+](C)(C)[O-]` [TMAO, trimethylamine N-oxide], the “rate of trypsin autolysis (R as a function of time)” value (“rate … (R as a function of time)” for short) in test [1] ([…] compound) is “exceeds glycerol in its ability to stabilize trypsin against autolysis”. The “rate of trypsin autolysis in the presence of SDS” value (shortened to “rate … of SDS”) in test [2] (setting [3]) was “able to “protect” proteins against a denaturing force; also recorded: still slower than in the absence of both SDS and a protein stabilizer”.
On to `C[N+](C)(C)CC(O)CO.[Cl-]` (stereo not drawn) [1-Propanaminium, 2,3-dihydroxy-N,N,N-trimethyl-, chloride], for which, in test [1] ([…] compound), the “rate … (R as a function of time)” value is “exceed that of both glycerol and TMAO”.
On to `OCC(O)CO` [glycerol], for which the “rate … (R as a function of time)” value in test [1] ([…] compound) is “significantly reduces the rate of trypsin autolysis”. In addition, the “rate … of SDS” value in test [2] (setting [3]) is “able to “protect” proteins against a denaturing force”.
As for `O=C1CC[C@@H](C(=O)O)N1` [PCA, pyrollidone carboxylic acid], in test [1] (0.5 M compound), the “rate … (R as a function of time)” value is reported as “virtual absence of autolysis; also recorded: by far the strongest ability of any of the compounds tested to stabilize trypsin”. For the same compound, the “rate … of SDS” value in test [2] (0.5 M stabilizer plus 0.5 mM SDS) is “able to “protect” proteins against a denaturing force; also recorded: still slower than in the absence of both SDS and a protein stabilizer”.
For the compound `CCCCCCCCCCCCOS(=O)(=O)[O-].[Na+]` [SDS, sodium dodecyl sulfate], the “rate … (R as a function of time)” value in test [1] (0.5 mM compound) is listed as “significant increase in the rate of trypsin hydrolysis”.
Take `NC(N)=O` [urea]: the “rate … (R as a function of time)” value in test [1] ([…] compound) is “significant increase in the rate of trypsin hydrolysis”.
